# Data taken from patent US10968203B2, “Pyrimidinyl-pyridyloxy-naphthyl compounds and methods of treating IRE1-related diseases and disorders” (Genentech, Inc., priority 2017, dated 2021).
# Where a name gives a salt, the structure may show the parent alone.
# Tested on: XBP1s-luc 293 LUC
# Assay: cellular PD assay, XBP1s-LUC reporter (Example 903)
# Type: cell-based
# Conditions: Table 1; read-out: XBP1s-luc 293 LUC (IC50)
# In short: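 Cellular IRE1α pathway activity was quantified from the luciferase signal of an XBP1-Luc reporter, where the luciferase fusion is in frame and expressed only from the spliced XBP1 transcript.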
row,Compound,IC50
1,"Cc1ccc2c(NS(=O)(=O)Cc3ccccn3)cccc2c1Oc1ncccc1-c1ccnc(N[C@H]2CCCNC2)n1 [Example 126, (S)—N-(6-Methyl-5-((3-(2-(piperidin-3-ylamino)pyrimidin-4-yl)pyridin-2-yl)oxy)naphthalen-1-yl)-1-(pyridin-2-yl)methanesulfonamide hydrochloride]",54 nM
2,"Cc1ccc2c(NS(=O)(=O)CC3CCC3)cccc2c1Oc1ncccc1-c1ccnc(N[C@H]2CCCNC2)n1 [Example 127, (S)-1-Cyclobutyl-N-(6-methyl-5-((3-(2-(piperidin-3-ylamino)pyrimidin-4-yl)pyridin-2-yl)oxy)naphthalen-1-yl)methanesulfonamide]",233 nM
3,"Cc1ccc2c(NS(=O)(=O)CC3CCCC3)cccc2c1Oc1ncccc1-c1ccnc(N[C@H]2CCCNC2)n1 [Example 128, (S)-1-Cyclopentyl-N-(6-methyl-5-((3-(2-(piperidin-3-ylamino)pyrimidin-4-yl)pyridin-2-yl)oxy)naphthalen-1-yl)methanesulfonamide]",317 nM
4,"Cc1ccc2c(NS(=O)(=O)CCC3CC3)cccc2c1Oc1ncccc1-c1ccnc(N[C@H]2CCCNC2)n1 [Example 129, (S)-2-Cyclopropyl-N-(6-methyl-5-((3-(2-(piperidin-3-ylamino)pyrimidin-4-yl)pyridin-2-yl)oxy)naphthalen-1-yl)ethanesulfonamide]",301 nM
5,"Cc1ccc2c(NC(=O)CC3CCCCC3)cccc2c1Oc1ncccc1-c1ccnc(N[C@H]2CCCNC2)n1 [Example 130, (S)-2-Cyclohexyl-N-(6-methyl-5-((3-(2-(piperidin-3-ylamino)pyrimidin-4-yl)pyridin-2-yl)oxy)naphthalen-1-yl)acetamide]",228 nM
6,"Cc1ccc2c(NC(=O)C3CCC3)cccc2c1Oc1ncccc1-c1ccnc(N[C@H]2CCCNC2)n1 [Example 131, (S)—N-(6-Methyl-5-((3-(2-(piperidin-3-ylamino)pyrimidin-4-yl)pyridin-2-yl)oxy)naphthalen-1-yl)cyclobutanecarboxamide]",153 nM
7,"COCCCS(=O)(=O)Nc1cccc2c(Oc3ncccc3-c3ccnc(N[C@H]4CCCNC4)n3)c(C)ccc12 [Example 132, (S)-3-Methoxy-N-(6-methyl-5-((3-(2-(piperidin-3-ylamino)pyrimidin-4-yl)pyridin-2-yl)oxy)naphthalen-1-yl)propane-1-sulfonamide hydrochloride]",365 nM
8,"Cc1ccc2c(NS(=O)(=O)CC3CCOCC3)cccc2c1Oc1ncccc1-c1ccnc(N[C@H]2CCCNC2)n1 [Example 133, (S)—N-(6-Methyl-5-((3-(2-(piperidin-3-ylamino)pyrimidin-4-yl)pyridin-2-yl)oxy)naphthalen-1-yl)-1-(tetrahydro-2H-pyran-4-yl)methanesulfonamide hydrochloride]",158 nM
9,"Cc1ccc2c(NS(=O)(=O)Cc3ccccc3Cl)cccc2c1Oc1ncccc1-c1ccnc(N[C@H]2CCCNC2)n1 [Example 135, (S)-1-(2-Chlorophenyl)-N-(6-methyl-5-((3-(2-(piperidin-3-ylamino)pyrimidin-4-yl)pyridin-2-yl)oxy)naphthalen-1-yl)methanesulfonamide]",10 nM
10,"CCCCS(=O)(=O)Nc1cccc2c(Oc3ncccc3-c3ccnc(N[C@H]4CCCNC4)n3)c(C)ccc12 [Example 136, (S)—N-(6-Methyl-5-((3-(2-(piperidin-3-ylamino)pyrimidin-4-yl)pyridin-2-yl)oxy)naphthalen-1-yl) butane-1-sulfonamide]",297 nM
11,"COCCS(=O)(=O)Nc1cccc2c(Oc3ncccc3-c3ccnc(N[C@H]4CCCNC4)n3)c(C)ccc12 [Example 137, (S)-2-Methoxy-N-(6-methyl-5-((3-(2-(piperidin-3-ylamino)pyrimidin-4-yl)pyridin-2-yl)oxy)naphthalen-1-yl)ethanesulfonamide]",477 nM
12,"COC(C)CS(=O)(=O)Nc1cccc2c(Oc3ncccc3-c3ccnc(N[C@H]4CCCNC4)n3)c(C)ccc12 (stereo partly drawn) [Example 138, 2-Methoxy-N-(6-methyl-5-((3-(2-((S)-piperidin-3-ylamino)pyrimidin-4-yl)pyridin-2-yl)oxy)naphthalen-1-yl)propane-1-sulfonamide]",388 nM
13,"Cc1ccc2c(NS(=O)(=O)CC(C)(C)C)cccc2c1Oc1ncccc1-c1ccnc(N[C@H]2CCCNC2)n1 [Example 139, (S)-2,2-Dimethyl-N-(6-methyl-5-((3-(2-(piperidin-3-ylamino)pyrimidin-4-yl)pyridin-2-yl)oxy)naphthalen-1-yl)propane-1-sulfonamide]",241 nM
14,"Cc1ccc2c(NS(=O)(=O)C3CCCCC3)cccc2c1Oc1ncccc1-c1ccnc(N[C@H]2CCCNC2)n1 [Example 140, (S)—N-(6-Methyl-5-((3-(2-(piperidin-3-ylamino)pyrimidin-4-yl)pyridin-2-yl)oxy)naphthalen-1-yl)cyclohexanesulfonamide]",177 nM
15,"Cc1ccc2c(NS(=O)(=O)CC3CCCO3)cccc2c1Oc1ncccc1-c1ccnc(N[C@H]2CCCNC2)n1 (stereo partly drawn) [Example 141, N-(6-Methyl-5-((3-(2-((S)-piperidin-3-ylamino)pyrimidin-4-yl)pyridin-2-yl)oxy)naphthalen-1-yl)-1-(tetrahydrofuran-2-yl)methanesulfonamide]",457 nM
16,"Cc1ccc2c(NS(=O)(=O)Cc3ccccc3C(F)(F)F)cccc2c1Oc1ncccc1-c1ccnc(N[C@H]2CCCNC2)n1 [Example 142, (S)—N-(6-Methyl-5-((3-(2-(piperidin-3-ylamino)pyrimidin-4-yl)pyridin-2-yl)oxy)naphthalen-1-yl)-1-(2-(trifluoromethyl)phenyl)methanesulfonamide]",8 nM
17,"Cc1ccc2c(NS(=O)(=O)Cc3ccc(Cl)cc3)cccc2c1Oc1ncccc1-c1ccnc(N[C@H]2CCCNC2)n1 [Example 143, (S)-1-(4-Chlorophenyl)-N-(6-methyl-5-((3-(2-(piperidin-3-ylamino)pyrimidin-4-yl)pyridin-2-yl)oxy)naphthalen-1-yl)methanesulfonamide]",17 nM
18,"Cc1ccc2c(NS(=O)(=O)Cc3cccc(Cl)c3)cccc2c1Oc1ncccc1-c1ccnc(N[C@H]2CCCNC2)n1 [Example 144, (S)-1-(3-Chlorophenyl)-N-(6-methyl-5-((3-(2-(piperidin-3-ylamino)pyrimidin-4-yl)pyridin-2-yl)oxy)naphthalen-1-yl)methanesulfonamide]",25 nM
19,"Cc1ccc2c(NS(=O)(=O)Cc3ccccc3F)cccc2c1Oc1ncccc1-c1ccnc(N[C@H]2CCCNC2)n1 [Example 145, (S)-1-(2-Fluorophenyl)-N-(6-methyl-5-((3-(2-(piperidin-3-ylamino)pyrimidin-4-yl)pyridin-2-yl)oxy)naphthalen-1-yl)methanesulfonamide]",15 nM
20,"Cc1ccc2c(NS(=O)(=O)Cc3ccccc3C#N)cccc2c1Oc1ncccc1-c1ccnc(N[C@H]2CCCNC2)n1 [Example 146, (S)-1-(2-Cyanophenyl)-N-(6-methyl-5-((3-(2-(piperidin-3-ylamino)pyrimidin-4-yl)pyridin-2-yl)oxy)naphthalen-1-yl)methanesulfonamide]",18 nM
21,"C=CS(=O)(=O)Nc1cccc2c(Oc3ncccc3-c3ccnc(N[C@H]4CCCNC4)n3)c(C)ccc12 [Example 147, (S)—N-(6-Methyl-5-((3-(2-(piperidin-3-ylamino)pyrimidin-4-yl)pyridin-2-yl)oxy)naphthalen-1-yl)ethenesulfonamide]",139 nM
22,"Cc1ccc2c(NS(=O)(=O)Cc3ccccc3)cccc2c1Oc1ncccc1-c1ccnc(N[C@@H]2CNC[C@H](F)C2)n1 [Example 148, N-(5-((3-(2-(((3S,5R)-5-Fluoropiperidin-3-yl)amino)pyrimidin-4-yl)pyridin-2-yl)oxy)-6-methylnaphthalen-1-yl)-1-phenylmethanesulfonamide]",211 nM
23,"Cc1ccc2c(NS(=O)(=O)c3cccnc3)cccc2c1Oc1ncccc1-c1ccnc(N[C@H]2CCCNC2)n1 [Example 149, (S)—N-(6-Methyl-5-((3-(2-(piperidin-3-ylamino)pyrimidin-4-yl)pyridin-2-yl)oxy)naphthalen-1-yl)pyridine-3-sulfonamide]",494 nM
24,"Cc1ccc2c(NS(=O)(=O)Cc3ccc(F)cc3)cccc2c1Oc1ncccc1-c1ccnc(N[C@H]2CCCNC2)n1 [Example 150, (S)-1-(4-Fluorophenyl)-N-(6-methyl-5-((3-(2-(piperidin-3-ylamino)pyrimidin-4-yl)pyridin-2-yl)oxy)naphthalen-1-yl)methanesulfonamide]",25 nM
25,"Cc1ccc2c(NS(=O)(=O)CCl)cccc2c1Oc1ncccc1-c1ccnc(N[C@H]2CCCNC2)n1 [Example 151, (S)-1-Chloro-N-(6-methyl-5-((3-(2-(piperidin-3-ylamino)pyrimidin-4-yl)pyridin-2-yl)oxy)naphthalen-1-yl)methanesulfonamide]",140 nM
26,"Cc1ccc2c(NS(=O)(=O)Cc3ccccc3)cccc2c1Oc1ncccc1-c1ccnc(N[C@H]2CC[C@H](N)CC2)n1 [Example 152, N-(5-((3-(2-(((trans)-4-Aminocyclohexyl)amino)pyrimidin-4-yl)pyridin-2-yl)oxy)-6-methylnaphthalen-1-yl)-1-phenylmethanesulfonamide]",241 nM
27,"CCOC(=O)Nc1cccc2c(Oc3ncccc3-c3ccnc(N[C@H]4CCCNC4)n3)c(C)ccc12 [Example 153, (S)-Ethyl (6-methyl-5-((3-(2-(piperidin-3-ylamino)pyrimidin-4-yl)pyridin-2-yl)oxy)naphthalen-1-yl)carbamate]",143 nM
28,"Cc1ccc2c(NC(=O)C3(C)CC3)cccc2c1Oc1ncccc1-c1ccnc(N[C@H]2CCCNC2)n1 [Example 154, (S)-1-Methyl-N-(6-methyl-5-((3-(2-(piperidin-3-ylamino)pyrimidin-4-yl)pyridin-2-yl)oxy)naphthalen-1-yl)cyclopropane-1-carboxamide]",239 nM
29,"Cc1ccc2c(NC(=O)C3(F)CC3)cccc2c1Oc1ncccc1-c1ccnc(N[C@H]2CCCNC2)n1 [Example 155, (S)-1-Fluoro-N-(6-methyl-5-((3-(2-(piperidin-3-ylamino)pyrimidin-4-yl)pyridin-2-yl)oxy)naphthalen-1-yl)cyclopropane-1-carboxamide]",380 nM
